In ChEMBL document CHEMBL5236632, “Membrane-Active Nonivamide Derivatives as Effective Broad-Spectrum Antimicrobials: Rational Design, Synthesis, and Biological Evaluation” (J Med Chem, 2022):
Converted amounts (≈) assume the structure as drawn.

What was measured:
Staphylococcus aureus [1] = assay: Drug resistance development in Staphylococcus aureus ATCC 29213 assessed as fold change in MIC measured after 20 passages; format: functional
Staphylococcus aureus [2] = assay: Antibacterial activity against Staphylococcus aureus ATCC 29213 assessed as inhibition of visible growth measured after 18 to 24 hrs by broth dilution method; format: functional; settings: time 18-24 hrs
Escherichia coli = assay: Antibacterial activity against Escherichia coli ATCC 25922 assessed as inhibition of visible growth measured after 18 to 24 hrs by broth dilution method; format: functional; settings: time 18-24 hrs
Staphylococcus aureus [3] = assay: Antibacterial activity against methicillin-resistant Staphylococcus aureus N315 assessed as inhibition of visible growth measured after 18 to 24 hrs by broth dilution method; format: functional; settings: time 18-24 hrs
[4] = Haemolytic activity in rabbit red blood cells incubated for 60 mins by k multi-mode reader relative to control; format: toxicity, cell-based, Oryctolagus cuniculus, Erythrocyte; settings: for HC50 at 1 h: rabbit red blood cells
Staphylococcus aureus [5] = assay: Antibacterial activity against methicillin-resistant Staphylococcus aureus NCTC 10442 assessed as inhibition of visible growth measured after 18 to 24 hrs by broth dilution method; format: functional; settings: time 18-24 hrs
[6] = Selectivity ratio, HC50 for hemolytic activity in rabbit RBC to MIC for antibacterial activity against Staphylococcus aureus ATCC 29213; format: toxicity; settings: rabbit red blood cells
[7] = Selectivity ratio, HC50 for hemolytic activity in rabbit RBC to MIC for antibacterial activity against methicillin-resistant Staphylococcus aureus NCTC 10442; format: toxicity; settings: rabbit red blood cells
[8] = Selectivity ratio, HC50 for hemolytic activity in rabbit RBC to MIC for antibacterial activity against methicillin-resistant Staphylococcus aureus N315; format: toxicity; settings: rabbit red blood cells
Staphylococcus aureus [9] = assay: Antibacterial activity against Staphylococcus aureus ATCC 29213 assessed as reduction in bacterial load at 8 time of MIC measured after 8 hrs by time kill assay; format: functional
Klebsiella pneumoniae [10] = assay: Antibacterial activity against Klebsiella pneumoniae ATCC 14581 assessed as inhibition of visible growth measured after 18 to 24 hrs by broth dilution method; format: functional; settings: time 18-24 hrs
Acinetobacter baumannii [11] = assay: Antibacterial activity against Acinetobacter baumannii ATCC 17978 assessed as inhibition of visible growth measured after 18 to 24 hrs by broth dilution method; format: functional; settings: time 18-24 hrs
[12] = Selectivity ratio, HC50 for hemolytic activity in rabbit RBC to MIC for antibacterial activity against Acinetobacter baumannii R2889; format: toxicity; settings: rabbit red blood cells
Acinetobacter baumannii [13] = assay: Antibacterial activity against Acinetobacter baumannii R2889 assessed as inhibition of visible growth measured after 18 to 24 hrs by broth dilution method; format: functional; settings: time 18-24 hrs
[14] = Selectivity ratio, HC50 for hemolytic activity in rabbit RBC to MIC for antibacterial activity against Pseudomonas aeruginosa ATCC 9027; format: toxicity; settings: rabbit red blood cells
[15] = Selectivity ratio, HC50 for hemolytic activity in rabbit RBC to MIC for antibacterial activity against Klebsiella pneumoniae ATCC 10031; format: toxicity; settings: rabbit red blood cells
Klebsiella pneumoniae [16] = assay: Antibacterial activity against Klebsiella pneumoniae ATCC 10031 assessed as inhibition of visible growth measured after 18 to 24 hrs by broth dilution method; format: functional; settings: time 18-24 hrs
[17] = Selectivity ratio, HC50 for hemolytic activity in rabbit RBC to MIC for antibacterial activity against Klebsiella pneumoniae ATCC 14581; format: toxicity; settings: rabbit red blood cells
[18] = Selectivity ratio, HC50 for hemolytic activity in rabbit RBC to MIC for antibacterial activity against Acinetobacter baumannii ATCC 17978; format: toxicity; settings: rabbit red blood cells

Structure (SMILES): CCn1cc(C(=O)O)c(=O)c2cc(F)c(N3CCNCC3)cc21 [NORFLOXACIN]
- fold change (FC) (Staphylococcus aureus [1]): 128

Structure (SMILES): CCCCCCCCC(=O)NCc1ccc(O)c(O)c1
- MIC (Staphylococcus aureus [2]): > 50 µg/mL
- MIC (Escherichia coli): > 50 µg/mL
- MIC (Staphylococcus aureus [3]): > 50 µg/mL
- HC50 at 1 h [4]: > 200 µg/mL
- MIC (Staphylococcus aureus [5]): > 50 µg/mL

Structure (SMILES): CCCCCCCCC(=O)NCc1ccc(OCCCCN)c(OC)c1
- MIC (Staphylococcus aureus [2]): > 50 µg/mL
- MIC (Escherichia coli): > 50 µg/mL
- MIC (Staphylococcus aureus [3]): > 50 µg/mL
- HC50 at 1 h [4]: > 200 µg/mL
- MIC (Staphylococcus aureus [5]): > 50 µg/mL

Structure (SMILES): CCCCCCCCC(=O)NCc1ccc(OCCCCNC(=N)N)c(OC)c1
- MIC (Staphylococcus aureus [2]): 12.5 µg/mL (≈ 30.7 µM)
- selectivity ratio [6]: > 16
- MIC (Escherichia coli): > 50 µg/mL
- MIC (Staphylococcus aureus [3]): 6.25 µg/mL (≈ 15.4 µM)
- selectivity ratio [7]: > 16
- HC50 at 1 h [4]: > 200 µg/mL
- MIC (Staphylococcus aureus [5]): 6.25 µg/mL (≈ 15.4 µM)
- selectivity ratio [8]: > 16

Structure (SMILES): COc1cc(CNC(=O)CCCC/C=C/C(C)C)ccc1OCCCCCCNC(=N)N
- MIC (Staphylococcus aureus [2]): 6.25 µg/mL (≈ 14 µM)
- selectivity ratio [6]: > 32
- MIC (Escherichia coli): > 50 µg/mL
- MIC (Staphylococcus aureus [3]): 3.12 µg/mL (≈ 7 µM)
- selectivity ratio [7]: > 32
- HC50 at 1 h [4]: > 200 µg/mL
- MIC (Staphylococcus aureus [5]): 3.12 µg/mL (≈ 7 µM)
- selectivity ratio [8]: > 32

Structure (SMILES): CCCCCCCCC(=O)NCc1ccc(OCCCCCCN)c(OC)c1
- MIC (Staphylococcus aureus [2]): > 50 µg/mL
- MIC (Escherichia coli): > 50 µg/mL
- MIC (Staphylococcus aureus [3]): > 50 µg/mL
- HC50 at 1 h [4]: > 200 µg/mL
- MIC (Staphylococcus aureus [5]): > 50 µg/mL

Structure (SMILES): CCCCCCCCC(=O)NCc1ccc(OCC(=O)N[C@@H](CCCNC(=N)N)C(=O)N[C@@H](CCCNC(=N)N)C(=O)N[C@@H](CCCNC(=N)N)C(=O)OC)c(OC)c1
- MIC (Staphylococcus aureus [2]): > 50 µg/mL
- MIC (Escherichia coli): > 50 µg/mL
- MIC (Staphylococcus aureus [3]): > 50 µg/mL
- HC50 at 1 h [4]: > 200 µg/mL
- MIC (Staphylococcus aureus [5]): 50 µg/mL (≈ 59.9 µM)

Structure (SMILES): CCCCCCCCC(=O)NCc1ccc(OCCNC(=N)N)c(OC)c1
- MIC (Staphylococcus aureus [2]): 50 µg/mL (≈ 132 µM)
- selectivity ratio [6]: > 4
- MIC (Escherichia coli): > 50 µg/mL
- MIC (Staphylococcus aureus [3]): 25 µg/mL (≈ 66 µM)
- selectivity ratio [7]: > 4
- HC50 at 1 h [4]: > 200 µg/mL
- MIC (Staphylococcus aureus [5]): 25 µg/mL (≈ 66 µM)
- selectivity ratio [8]: > 4

Structure (SMILES): CCCCCCCCC(=O)NCc1ccc(OCCCCCCCCCCCCNC(=N)N)c(OC)c1
- MIC (Staphylococcus aureus [2]): > 50 µg/mL
- MIC (Escherichia coli): > 50 µg/mL
- MIC (Staphylococcus aureus [3]): 25 µg/mL (≈ 48.2 µM)
- HC50 at 1 h [4]: > 200 µg/mL
- MIC (Staphylococcus aureus [5]): 25 µg/mL (≈ 48.2 µM)

Structure (SMILES): CN[C@H](CC(C)C)C(=O)N[C@H]1C(=O)N[C@@H](CC(N)=O)C(=O)N[C@H]2C(=O)N[C@H]3C(=O)N[C@H](C(=O)N[C@H](C(=O)O)c4cc(O)cc(O)c4-c4cc3ccc4O)[C@H](O)c3ccc(c(Cl)c3)Oc3cc2cc(c3O[C@@H]2O[C@H](CO)[C@@H](O)[C@H](O)[C@H]2O[C@H]2C[C@](C)(N)[C@H](O)[C@H](C)O2)Oc2ccc(cc2Cl)[C@H]1O [VANCOMYCIN]
- Activity (Staphylococcus aureus [9]): 2.44 log10CFU/ml
- MIC (Staphylococcus aureus [2]): 1.56 µg/mL (≈ 1.08 µM)
- MIC (Escherichia coli): > 50 µg/mL
- MIC (Staphylococcus aureus [3]): 0.78 µg/mL (≈ 0.538 µM)
- MIC (Staphylococcus aureus [5]): 0.78 µg/mL (≈ 0.538 µM)

Structure (SMILES): CCCCCCCCC(=O)NCc1ccc(OCCCCCCNC(=N)N)c(OC)c1
- MIC (Staphylococcus aureus [2]): 3.12 µg/mL (≈ 7.19 µM)
- selectivity ratio [6]: > 64
- MIC (Escherichia coli): > 50 µg/mL
- MIC (Staphylococcus aureus [3]): 3.12 µg/mL (≈ 7.19 µM)
- selectivity ratio [7]: > 64
- HC50 at 1 h [4]: > 200 µg/mL
- MIC (Staphylococcus aureus [5]): 1.56 µg/mL (≈ 3.59 µM)
- selectivity ratio [8]: > 64

Structure (SMILES): CC[C@H](C)[C@H](NC(=O)CN)C(=O)NCC(=O)N[C@@H](C)C(=O)N[C@H](C(=O)N[C@@H](CC(C)C)C(=O)N[C@@H](CCCCN)C(=O)N[C@H](C(=O)N[C@@H](CC(C)C)C(=O)N[C@H](C(=O)N[C@H](C(=O)NCC(=O)N[C@@H](CC(C)C)C(=O)N1CCC[C@H]1C(=O)N[C@@H](C)C(=O)N[C@@H](CC(C)C)C(=O)N[C@H](C(=O)N[C@@H](CO)C(=O)N[C@@H](Cc1c[nH]c2ccccc12)C(=O)N[C@H](C(=O)N[C@@H](CCCCN)C(=O)N[C@@H](CCCNC(=N)N)C(=O)N[C@@H](CCCCN)C(=O)N[C@@H](CCCNC(=N)N)C(=O)N[C@@H](CCC(N)=O)C(=O)N[C@@H](CCC(N)=O)C(N)=O)[C@@H](C)CC)[C@@H](C)CC)[C@@H](C)O)[C@@H](C)O)C(C)C)C(C)C [MELITTIN]
- MIC (Klebsiella pneumoniae [10]): 6.25 µg/mL (≈ 2.2 µM)
- MIC (Acinetobacter baumannii [11]): 3.12 µg/mL (≈ 1.1 µM)
- selectivity ratio [12]: 3.1
- selectivity ratio [6]: 6.1
- MIC (Acinetobacter baumannii [13]): 3.12 µg/mL (≈ 1.1 µM)
- selectivity ratio [14]: 3.1
- selectivity ratio [7]: 6.1
- selectivity ratio [15]: 3.1
- HC5 ([4]; erythrocyte, 1 h): 5.4 µg/mL
- MIC (Klebsiella pneumoniae [16]): 6.25 µg/mL (≈ 2.2 µM)
- selectivity ratio [17]: 3.1
- selectivity ratio [18]: 3.1
- selectivity ratio [8]: 6.1

Structure (SMILES): CCN(CC)CCCCOc1ccc(CNC(=O)CCCC/C=C/C(C)C)cc1OC
- MIC (Staphylococcus aureus [2]): > 50 µg/mL
- MIC (Escherichia coli): > 50 µg/mL
- MIC (Staphylococcus aureus [3]): > 50 µg/mL
- HC50 at 1 h [4]: > 200 µg/mL
- MIC (Staphylococcus aureus [5]): > 50 µg/mL

Structure (SMILES): CCCCCCCCC(=O)NCc1ccc(OCCCCCCCCCCNC(=N)N)c(OC)c1
- MIC (Staphylococcus aureus [2]): 6.25 µg/mL (≈ 12.7 µM)
- selectivity ratio [6]: > 32
- MIC (Escherichia coli): > 50 µg/mL
- MIC (Staphylococcus aureus [3]): 6.25 µg/mL (≈ 12.7 µM)
- selectivity ratio [7]: > 32
- HC50 at 1 h [4]: > 200 µg/mL
- MIC (Staphylococcus aureus [5]): 6.25 µg/mL (≈ 12.7 µM)
- selectivity ratio [8]: > 32
